Patent US6486203B1, “Treating inflammatory diseases of the head and neck with cyclooxygenase-2 inhibitors” (Cornell Research Foundation, Inc., priority 1998, dated 2002)

Columns and labels:
Format in all cases: in vivo, human
[1] = test system: sinusitis; assay: Treatment of a patient with sinusitis (Example III); conditions: person with sinusitis; 200 mg orally twice a day, together with amoxicillin; after taking one dose
Protocol: A person presents to their physician complaining of fever and headache. On physical examination, they have tenderness over their maxillary sinus. A diagnosis of sinusitis is made. The patient is treated with amoxicillin 500 mg orally every eight hours for ten days. They are also given Celebrex 200 mg orally twice a day for seven days.

[2] = test system: viral pharyngitis; assay: Treatment of a patient with viral pharyngitis with lozenges (Example II); conditions: person with viral pharyngitis; lozenges containing 100 mg four times a day
Protocol: A person has symptoms of a sore throat. They are evaluated by their physician who detects an erythematous pharynx. A diagnosis of viral pharyngitis is made.

[3] = test system: tonsillitis; assay: Treatment of a patient with tonsillitis (Example I); conditions: person with tonsillitis; 200 mg orally twice a day, together with amoxicillin; after taking one dose
Protocol: A person has symptoms of a sore throat and fever. They are evaluated by a physician who notes inflamed tonsils and diagnoses tonsillitis. The patient is treated with amoxicillin 500 mg orally every eight hours for ten days. Additionally, they are given Celebrex (celecoxib) 200 mg orally twice a day for seven days.

[4] = test system: sore throat; assay: Treatment of sore throat with resveratrol lozenges (Example IV); conditions: person with sore throat; lozenges of 1 gram, four per day for two days
Source text: A person has symptoms of a sore throat.

[5] = test system: periodontitis; assay: Treatment of a patient with periodontitis with resveratrol lozenges (Example V); conditions: tobacco-smoking person with periodontitis; lozenges of 1 gram twice a day; four months later
Source text: A […] tobacco-smoking […] is referred to a periodontist for bleeding gums and is diagnosed with periodontitis.

Cc1ccc(-c2cc(C(F)(F)F)nn2-c2ccc(S(N)(=O)=O)cc2)cc1 [Celebrex, 4-[5-(4-Methylphenyl)-3-(trifluoromethyl)-1H-pyrazol-1-yl]benzenesulfonamide]
improvement in sinus pain [1]: marked improvement in their sinus pain | resolution of sore throat [2]: complete resolution of their sore throat within two days | improvement in throat pain [3]: marked improvement in their throat pain

Oc1ccc(/C=C/c2cc(O)cc(O)c2)cc1 [resveratrol]
relief of throat discomfort [4]: rapid relief of their throat discomfort | bleeding in gums [5]: markedly decreased bleeding in their gums | periodontal disease on examination [5]: improvement in periodontal disease is detected on examination
